In the experiment the target is T1, human α4β7 (Homo sapiens, UniProt P13612+P26010).
T1 construct: expressed in transfected cells
T1 sequence (P13612 34-1032): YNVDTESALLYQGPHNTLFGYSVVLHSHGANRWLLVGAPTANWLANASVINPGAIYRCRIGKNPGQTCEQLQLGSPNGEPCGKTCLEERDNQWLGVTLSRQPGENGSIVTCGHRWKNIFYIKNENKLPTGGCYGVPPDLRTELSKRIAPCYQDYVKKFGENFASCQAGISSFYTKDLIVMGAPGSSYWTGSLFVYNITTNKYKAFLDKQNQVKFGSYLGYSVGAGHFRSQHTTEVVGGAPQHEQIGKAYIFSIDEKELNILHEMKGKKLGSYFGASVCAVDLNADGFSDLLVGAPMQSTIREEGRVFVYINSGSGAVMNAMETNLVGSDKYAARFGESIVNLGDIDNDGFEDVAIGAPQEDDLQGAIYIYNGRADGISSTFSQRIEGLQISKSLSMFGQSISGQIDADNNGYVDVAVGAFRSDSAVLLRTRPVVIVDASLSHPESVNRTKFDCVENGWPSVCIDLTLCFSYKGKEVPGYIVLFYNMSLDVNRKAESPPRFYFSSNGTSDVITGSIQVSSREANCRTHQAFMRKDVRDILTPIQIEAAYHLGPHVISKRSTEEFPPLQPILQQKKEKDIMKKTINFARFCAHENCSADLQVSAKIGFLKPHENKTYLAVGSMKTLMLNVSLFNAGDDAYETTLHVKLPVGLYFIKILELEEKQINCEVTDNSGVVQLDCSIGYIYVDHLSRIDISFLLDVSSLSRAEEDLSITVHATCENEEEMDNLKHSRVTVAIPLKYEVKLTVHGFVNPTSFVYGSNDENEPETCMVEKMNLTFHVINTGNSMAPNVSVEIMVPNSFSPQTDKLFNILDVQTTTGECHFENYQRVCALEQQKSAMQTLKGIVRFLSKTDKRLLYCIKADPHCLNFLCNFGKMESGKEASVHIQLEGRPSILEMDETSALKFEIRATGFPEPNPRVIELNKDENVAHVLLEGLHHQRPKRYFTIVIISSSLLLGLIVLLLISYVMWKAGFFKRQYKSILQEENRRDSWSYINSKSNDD
T1 sequence (P26010 20-798): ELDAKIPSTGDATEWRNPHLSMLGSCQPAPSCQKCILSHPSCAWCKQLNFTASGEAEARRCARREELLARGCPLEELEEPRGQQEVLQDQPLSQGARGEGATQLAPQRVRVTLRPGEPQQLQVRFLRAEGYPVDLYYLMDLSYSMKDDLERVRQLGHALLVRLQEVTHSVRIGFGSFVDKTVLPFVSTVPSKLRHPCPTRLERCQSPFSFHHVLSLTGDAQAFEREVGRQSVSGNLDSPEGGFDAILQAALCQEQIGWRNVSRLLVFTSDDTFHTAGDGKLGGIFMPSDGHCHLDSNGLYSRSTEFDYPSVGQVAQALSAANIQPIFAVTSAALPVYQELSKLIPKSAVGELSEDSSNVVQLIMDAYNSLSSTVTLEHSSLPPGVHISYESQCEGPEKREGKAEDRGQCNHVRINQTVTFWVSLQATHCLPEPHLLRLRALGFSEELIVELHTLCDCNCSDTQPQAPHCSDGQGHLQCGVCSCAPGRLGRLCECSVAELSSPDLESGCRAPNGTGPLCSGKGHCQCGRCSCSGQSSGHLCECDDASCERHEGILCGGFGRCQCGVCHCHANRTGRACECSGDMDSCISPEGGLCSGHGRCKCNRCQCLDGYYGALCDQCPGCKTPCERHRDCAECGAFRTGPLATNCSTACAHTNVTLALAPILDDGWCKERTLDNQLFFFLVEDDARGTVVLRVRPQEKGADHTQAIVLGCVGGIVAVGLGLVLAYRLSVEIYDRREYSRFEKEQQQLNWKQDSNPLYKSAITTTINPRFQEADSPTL
The experiment can be described thus: α4β7-K562 Cell Adhesion Assay (α4β7 Mediated Adhesion/VCAM-1). Type of experiment: cell-based. As to conditions: K562 cells expressing human α4β7 on recombinant hVCAM-1; read-out: α4β7 IC50. The method in brief: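 Calcein AM-labelled K562 cells stably expressing human α4β7 adhered for 1 h at room temperature, with compound, to wells coated with recombinant hVCAM-1 (4.0 μg/mL, pH 9.0) and blocked with PBS/1% BSA. After washing, cells were lysed in 1% SDS/Tris pH 8.0 and fluorescence read at 485/530 nm.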

Drawing on US20060223846A1, “Aza-bridged-bicyclic amino acid derivatives as alpha4 integrin antagonists” (priority 2005, published 2006), this text covers IC50 for two compounds.

As to `CC(C)(C)CCN1C2CCC(CC2)[C@H]1C(=O)N[C@@H](Cc1ccc(NC(=O)c2c(Cl)cncc2Cl)cc1)C(=O)O` [Cpd 16, 3-{4-[(3,5-dichloro-pyridine-4-carbonyl)-amino]-phenyl}-2-{[2-(3,3-dimethyl-butyl)-2-aza-bicyclo[2.2.2]octane-3-carbonyl]-amino}-propionic acid], the IC50 stood at 94 nM.

For `O=C(Nc1ccc(CC(NC(=O)C2C3CCC(CC3)N2C(=O)Cc2ccsc2)C(=O)O)cc1)c1c(Cl)cncc1Cl` (centres unmarked) [Cpd 3], the IC50 amounted to 41 nM.
